Test results taken from patent publication US7135303B2, “Regulators of type-1 tumor necrosis factor receptor and other cytokine receptor shedding” (The United States of America as represented by the …, priority 2000, dated 2006).
Entries after “also recorded” stand apart in the source; their conditions may differ.

Legend:
Type in all cases: cell-based, human
[1] = test system: TNFR1 ectodomain shedding in NCI-H292 cells; experiment: TNFR1 ectodomain shedding assay (sTNFR1 sandwich ELISA of cell culture supernatants); conditions: for sTNFR1 in cell culture supernatant following PMA treatment: 24 hours
Experimental: The amount of TNFR1 ectodomain shedding occurring in each of these cell lines is depicted in FIG. 8. The levels of sTNFR1 ectodomain in cell culture supernatants from these cell lines were assayed using a commercially available sandwich-enzyme-linked immunosorbent assay (ELISA) technique (R & D Systems) with a lower limit of detection of 7.8 pg/ml.
Following the introduction and selection of these constructs in the host cell lines, the amount of TNFR1 ectodomain shedding occurring in each of the lines was determined by measuring the levels of sTNFR1 ectodomain in cell culture supernatants using a commercially available sandwich-enzyme-linked immunosorbent assay (ELISA) technique (R & D Systems) with a lower limit of detection of 7.8 pg/ml.
The amount of TNFR1 ectodomain shedding occurring in each of the stably transfected cell lines described in Example 9 was assessed. The levels of sTNFR1 ectodomain in cell culture supernatants from these cell lines were assayed by a commercially available sandwich-enzyme-linked immunosorbent assay (ELISA) technique (R & D Systems) with a lower limit of detection of 7.8 pg/ml. The protocol used was according to the manufacturer's instructions. The results of this assay are depicted in FIG. 8 as the mean of 5 independent experiments, with accompanying SEM (standard error of the mean) indicated above the bar.
A similar experiment analyzing the ability of ARTS-1 overexpression to potentiate the cleavage and shedding of TNFR ectodomain from the surface of NCI-H292 cells in response to PMA stimulation using these same cell lines is shown in FIG. 9.
This assay was further used to measure the sTNFR1 ectodomain shedding activity of ARTS-1 peptidase/protease catalytic mutants. The construction of these mutations (and resulting mutant cell lines) are described in Example 10. The ability of theses mutants to regulate sTNFR1 shedding was ascertained by measuring the concentration of sTNFR1 in the cell culture supernatant as described above in this Example.
Results from a second screening method are illustrated in FIG. 14, Panel B. In this screening method, cultured human NCI-H292 pulmonary mucoepidermoid carcinoma cells were again exposed to a test compound, PMA, at a concentration of 0.1 μM. Culture medium supernatant was collected from the cultures at intervals between 0 and 24 hours post treatment. The samples were analyzed by the TNFR1 ectodomain shedding assay using an ELISA as described in Example 11. In this assay, anti-sTNFR1 antibody was used to quantitate the concentrations of sTNFR1 in the cell culture supernatants. […] Thus, this screening method also identified a compound that is a candidate for further drug development.

[2] = test system: ARTS-1 protein in NCI-H292 cells; experiment: Drug screening: ARTS-1 protein expression by Western immunoblot of membrane protein fractions; conditions: 0.1 μM PMA, 0 to 24 hours, membrane protein fraction
Experimental: In another embodiment of the screening method of the present invention, Western immunoblotting is used to assess the levels of ARTS-1 protein following exposure of a cell culture to a test compound. In this embodiment, cultured cells were exposed to a test compound, in this case, 4b-phorbol 12-myristate 13-acetate (PMA), and samples of tissue were collected at 0, 2, 8 and 24 hours following the exposure. Membrane proteins were isolated from these cells and subjected to Western immunoblot analysis, as described in Examples 4 and 5, using antiserum specific for the ARTS-1 protein. […] It is contemplated that compounds that can upregulate ARTS-1 protein levels are therapeutically advantageous, as such compounds can suppress a proinflammatory immune response by enhancing receptor ectodomain shedding. However, an understanding of the mechanism(s) is not required in order to use the present invention. […]
In the first method, cultured human NCI-H292 pulmonary mucoepidermoid carcinoma cells were exposed to a test compound, in this case, 4b-phorbol 12-myristate 13-acetate (PMA) at a concentration of 0.1 μM. […] The protein samples were analyzed in a Western immunoblot using the anti-ARTS-1 antiserum at the primary detection antibody, as described in Examples 4 and 5. The protein fractions were analyzed in duplicate, and the relative densitometry units for each lane are shown beneath the columns. […]

[3] = test system: membrane-associated TNFR1 in NCI-H292 cells; experiment: Membrane-associated TNFR1 by Western immunoblot of crude membrane fractions of stably transfected cells
Experimental: The degree of TNFR1 ectodomain shedding as a function of ARTS-1 protein expression was also assessed indirectly by determining the relative amounts of membrane-bound TNFR1 fragment in each of the stably transfected cell lines described above using the Western immunoblotting technique described in Example 5. Crude membrane fractions from the stably transfected NCI-H292 cells described in Example 9 were prepared and resolved by SDS-PAGE and analyzed by Western immunoblotting using a murine anti-human TNFR1 monoclonal primary antibody (R & D System) which detects the membrane fragment of the TNF receptor.
The degree of TNFR1 ectodomain shedding as a function of ARTS-1 protein expression was also indirectly assessed by determining the relative amounts of membrane-bound TNFR1 fragment in each of the stably transfected cell lines described in Example 9 using Western immunoblotting.
Crude membrane fractions from the stably transfected NCI-H292 cells described in Example 9 were prepared and protein concentrations were quantitated, as described above. Samples from these membrane-derived protein preparations were resolved by SDS-PAGE and analyzed by Western immunoblotting as described above in Example 5 using a murine anti-human TNFR1 monoclonal primary antibody which detected the membrane fragment of the receptor (R & D System). […]

Row | Molecule | sTNFR1 in cell culture supernatant following PMA treatment ([1]; 0.1 μM PMA, NCI-H292 cell line containing only the empty pTarget vector) | sTNFR1 in cell culture supernatant following PMA treatment ([1]; 0.1 μM PMA, NCI-H292 cell line overexpressing the ARTS-1 cDNA) | sTNFR1 shedding compared to a control culture ([1]; NCI-H292 cells, 0.1 μM PMA, over the course of 24 hours, n=5, P<0.05) | ARTS-1 protein expression [2] | increase in sTNFR1 shedding ([1]; overexpression of ARTS-1 protein in stably transfected NCI-H292 cells vs Mock or WT controls) | level of sTNFR1 in cell culture supernatant compared to control cell lines (WT, Mock) ([1]; stably transfected NCI-H292 cell lines, mean of 5 independent experiments) | membrane-associated TNFR1 relative to WT or Mock cell lines [3]
1 | CCCCCCCCCCCCCC(=O)O[C@@H]1[C@@H](C)[C@@]2(O)[C@@H](C=C(CO)C[C@]3(O)C(=O)C(C)=C[C@@H]23)[C@@H]2C(C)(C)[C@]12OC(C)=O [PMA, 4b-phorbol 12-myristate 13-acetate] | 415.3 ± 4.5 pg/mL | 914.2 ± 9.5 pg/mL | increase in sTNFR1 shedding | upregulation of ARTS-1 protein expression; also recorded: increase in ARTS-1 protein expression | – | – | –
2 | ARTS-1: aminopeptidase regulator of type I, 55 kDa tumor necrosis factor receptor ectodomain shedding; 941 amino acids, SEQ ID NO:2; overexpressed from pTarget (protein, listed as Homo sapiens, aminopeptidase regulator of type I, 55 kDa tumor necrosis factor receptor ectodomain shedding; overexpressed from pTarget) MVFLPLKWSLATMSFLLSSLLALLTVSTPSWCQSTEASPKRSDGTPFPWNKIRLPEYVIPVHYDLLIHANLTTLTFWGTTKVEITASQPTSTIILHSHHLQISRATLRKGAGERLSEEPLQVLEHPRQEQIALLAPEPLLVGLPYTVVIHYAGNLSETFHGFYKSTYRTKEGELRILASTQFEPTAARMAFPCFDEPAFKASFSIKIRREPRHLAISNMPLVKSVTVAEGLIEDHFDVTVKMSTYLVAFIISDFESVSKITKSGVKVSVYAVPDKINQADYALDAAVTLLEFYEDYFSIPYPLPKQDLAAIPDFQSGAMENWGLTTYRESALLFDAEKSSASSKLGITMTVAHELAHQWFGNLVTMEWWNDLWLNEGFAKFMEFVSVSVTHPELKVGDYFFGKCFDAMEVDALNSSHPVSTPVENPAQIREMFDDVSYDKGACILNMLREYLSADAFKSGIVQYLQKHSYKNTKNEDLWDSMASICPTDGVKGMDGFCSRSQHSSSSSHWHQEGVDVKTMMNTWTLQKGFPLITITVRGRNVHMKQEHYMKGSDGAPDTGYLWHVPLTFITSKSDMVHRFLLKTKTDVLILPEEVEWIKFNVGMNGYYIVHYEDDGWDSLTGLLKGTHTAVSSNDRASLINNAFQLVSIGKLSIEKALDLSLYLKHETEIMPVFQGLNELIPMYKLMEKRDMNEVETQFKAFLIRLLRDLIDKQTWTDEGSVSERMLRSQLLLLACVHNYQPCVQRAEGYFRKWKESNGNLSLPVDVTLAVFAVGAQSTEGWDFLYSKYQFSLSSTEKSQIEFALCRTQNKEKLQWLLDESFKGDKIKTQEFPQILTLIGRNPVGYPLAWQFLRKNWNKLVQKFELGSSSIAHMVMGTTNQFSTRTRLEEVKGFFSSLKENGSQLRCVQQTIETIEENIGWMDKNFDKIRVWLQSEKLERM | – | – | – | – | approximately 200% | significant increase; also recorded: significantly elevated level of sTNFR1 | decrease
